Test results as given in paper PMC9953746, “Dimeric Benzodiazepines as Peptide Mimetics to Overcome p53-Dependent Drug Resistance of Tumors” (Biomolecules, 2023).
Read-outs that look alike come from different tables or passages of the source. Marks after values point to notes of the source that are not given here.

Key:
[1] = test system: solid tumors; design: method as in PMID 4959850; details: cited from earlier work
[2] = test system: epidermoid carcinoma A-431; assay: MTT cell viability assay, A-431; type: cell-based, human; details: for IC50: read-out: IC50 A-431 (epidermoid cancer); for SI index: IC50 BJ/IC50 A-431: selectivity index, normal skin BJ vs A-431
Description: (§1) The following cell lines were used in this study: epidermoid carcinoma A-431 (ATCC® CRL-1555), lung carcinomas A549 (ATCC® CCL-185) and NCI-H1299 (ATCC® CRL-5803), colorectal carcinomas HCT116 (ATCC® CCL-247) and HCT116p53^−/−, normal skin fibroblasts BJ (ATCC® CRL-2522), and normal lung fibroblasts MRC-5 (ATCC® CCL-171). The HCT116 p53^−/− cell line was a kind gift from Professor Bert Vogelstein (John Hopkin’s University, Baltimore, MD, USA). The remaining cell lines were purchased from ATCC (Manassas, VA, USA). The cells were cultured in minimal, Dulbecco’s modified Eagle’s, or Ham’s F-12K medium supplemented with 10% fetal bovine serum (Gibco by Thermo Fisher Scientific, Waltham, MA, USA) and grown under standard culture conditions (37°C, 5% CO2) in a humidified incubator with an oxygen concentration of 21%. All of the experiments were performed with mycoplasma-free cells.
(§2) The viability of the cells was assayed by measuring the conversion of MTT (3-(4,5-dimethylthiazol-2-yl)-2,5-diphenyltetrazolium bromide) to formazan (the rate of this reaction is proportional to the number of surviving cells). The cells were seeded in 96-well culture plates at a density of 3500–5000 cells per well 24 h before the treatment. Six wells were considered for each experimental point (technical repeats). Treatments with increasing concentrations of 10, 11, or cisplatin (0.6–80 μM) were performed for 72 h. The MTT stock solution (Sigma-Aldrich by Merck, Darmstadt, Germany) was added at a final concentration of 0.5 mg/mL. After 4 h of incubation at 37 °C, the water-insoluble formazan was dissolved in a lysis buffer containing 20% SDS, 50% DMF, 2.5% hydrochloric acid, and 2.5% acetic acid. The optical densities were measured at 570 nm using a scanning multi-well spectrophotometer (PARADIGM Detection Platform; Beckman Coulter, Brea, CA, USA). The ratio of the absorbance value of each tested group to the absorbance value of the untreated control was calculated, and each tested group’s cell viability was expressed as a percentage of the control. The cell viability assays were performed at least in triplicate using independent cell cultures.

[3] = test system: normal skin fibroblasts BJ; assay: MTT cell viability assay, BJ; type: cell-based, human; details: 72 h, read-out: IC50 BJ (normal skin)
Description: as §1
as §2, with “The cell viability assays were performed at least in triplicate using independent cell cultures.” left out

[4] = test system: lung carcinoma A549; assay: MTT cell viability assay, A549; type: cell-based, human; details: for IC50: read-out: IC50 A549 (lung cancer)
Description: as §1, §2

[5] = test system: normal lung fibroblasts MRC-5; assay: MTT cell viability assay, MRC-5; type: cell-based, human; details: read-out: IC50 MRC-5 (normal lung)
Description: as §1, §2

[6] = test system: lung carcinoma NCI-H1299; assay: MTT cell viability assay, NCI-H1299; type: cell-based, human; details: for IC50: read-out: IC50 NCI-H1299 (lung cancer)
Description: as §1, §2

[7] = test system: colorectal carcinoma HCT116; assay: MTT cell viability assay, HCT116; type: cell-based, human; details: read-out: IC50 HCT116 (colon cancer)
Description: as §1
as §2, with “The cell viability assays were performed at least in triplicate using independent cell cultures.” left out

[8] = test system: colorectal carcinoma HCT116p53^−/−; assay: MTT cell viability assay, HCT116p53-/-; type: cell-based, human; details: for IC50: 72 h, read-out: IC50 HCT116p53^−/− (colon cancer); for SI index: IC50 HCT116p53^−/−/IC50 HCT116: ratio of p53 knockout to wild-type HCT116
Description: as §1, §2

[9] = test system: HCT116 cells; assay: IncuCyte live-cell imaging, cell proliferation and death assay, HCT116; type: cell-based, human; details: 40 µM; for time at which cell death starts to increase significantly, HCT116: SYTOX Green Dead Cell Stain; for confluence, HCT116: up to 72 h, untreated 90%, DMSO 84% on the third day
Description: (§3) The cell proliferation and death were estimated in the IncuCyte S3 live-cell imaging system using the SYTOX™ Green Dead Cell Stain (Thermo, cat. no: S34860) and analyzed using the IncuCyte 2019B Rev2 software (Essen BioScience, Ann Arbor, MI, USA), according to the manufacturer’s instructions (https://www.sartorius.com/en/products/live-cell-imaging-analysis/live-cell-analysis-resources/live-cell-imaging-and-analsis-handbook (accessed on 21 October 2022)). The HCT116 and HCT116 p53^−/− cells were seeded in 96-well culture plates at a density of 5000 cells per well 24 h before the treatment. Four wells were considered for each experimental point. Treatments with 10, 11, cisplatin (40 μM), or dimethyl sulfoxide (which was used as a negative control at a concentration equal to the one used to dissolve 10 and 11) were carried out for up to 72 h, and images were recorded every 2 h during this time. The experiment was performed twice.

[10] = test system: HCT116 p53^−/− cells; assay: IncuCyte live-cell imaging, cell proliferation and death assay, HCT116p53-/-; type: cell-based, human; details: 40 µM; for confluence, HCT116p53^−/−: up to 72 h, untreated 88%, DMSO 83% on the third day; for time at which cell death starts to increase significantly, HCT116p53^−/−: SYTOX Green Dead Cell Stain
Description: as §3

[11] = test system: MDA-MB-435; design: method as in PMID 26594756, PMID 32095421; details: in vitro; cited from earlier work
[12] = test system: HepG2; design: method as in PMID 26594756, PMID 32095421; details: in vitro; cited from earlier work
[13] = test system: HCT-116; design: method as in PMID 26594756, PMID 32095421; details: in vitro; cited from earlier work
[14] = test system: Calu-3; design: method as in PMID 26594756, PMID 32095421; details: in vitro; cited from earlier work
[15] = test system: normal IKHE cell line; design: method as in PMID 26594756, PMID 32095421; details: in vitro; cited from earlier work
[16] = test system: Sarcoma 180; design: method as in earlier work; details: cited from earlier work
[17] = test system: Heps (liver cancer) cell line; design: method as in earlier work; details: cited from earlier work
[18] = ratio of IC50 values vs cisplatin

## Cc1ccc2c(c1O)NC(O)C1CC(/C=C/C(N)=O)=CN1C2=O (centres unmarked) [Anthramycin, anthramycin]
[1]
  growth of solid tumors in mice: inhibited the growth of solid tumors in mice

## N.N.[Cl][Pt][Cl] [Cisplatin, cisplatin, reference compound]
[2]; MTT, 72 h, mean ± SD, n = 3
  IC50: 1.56 ± 0.29 µM
[2]
  SI index: IC50 BJ/IC50 A-431: 3.26 ± 0.41 (**) ^c
[2]; listed as cisplatin
  SI index: IC50 BJ/IC50 A-431: 3.26 ± 0.41
[3]; MTT, mean ± SD, n = 3
  IC50: 5.06 ± 0.94 µM
[4]; MTT, 72 h, mean ± SD, n = 3
  IC50: 5.95 ± 1.28 µM
[5]; MTT, 72 h, mean ± SD, n = 3
  IC50: 4.17 ± 0.88 µM
[6]; MTT, 72 h, mean ± SD, n = 3
  IC50: 5.7 ± 0.88 µM
[7]; MTT, 72 h, mean ± SD, n = 3
  IC50: 3.51 ± 1.16 µM
[8]; MTT, mean ± SD, n = 3
  IC50: 10.8 ± 2.86 µM
[8]
  SI index: IC50 HCT116p53^−/−/IC50 HCT116: 3.18 ± 0.79 (*) ^c
[9]
  time of highest number of SYTOX Green positive cells, HCT116: 48 h
  time at which cell death starts to increase significantly, HCT116: 18 h
  confluence, HCT116: up to 16%
[10]
  time to plateau of cell death, HCT116p53^−/−: about 72 h
  confluence, HCT116p53^−/−: up to 16%
[10]; after about 72 h
  cell death level (SYTOX Green positive cells) at plateau, HCT116p53^−/−: 5116.3 ± 211.41

## O=C1NC(CSCSCC2NC(=O)c3cc([N+](=O)[O-])ccc3NC2=O)C(=O)Nc2ccc([N+](=O)[O-])cc21 (centres unmarked) [Compound 10, 3,3′-((methylenebis(sulfanediyl))bis(methylene))bis(7-nitro-3,4-dihydro-1H-benzo[e][1,4]diazepine-2,5-dione)]
[2]; Homo sapiens, A-431, MTT, 72 h, mean ± SD, n = 3
  IC50: 3.47 ± 0.32 µM
[2]
  SI index: IC50 BJ/IC50 A-431: 4.88 ± 1.08 (**) ^c (ns) ^b
[3]; Homo sapiens, Skin fibroblast, MTT, mean ± SD, n = 3
  IC50: 16.7 ± 2.77 µM
[4]; Homo sapiens, A549, MTT, 72 h, mean ± SD, n = 3
  IC50: 1.6 ± 0.21 µM
[4]; [18]
  times more cytotoxic than cisplatin, A549: 3.72 times
[5]; Homo sapiens, MRC5, 72 h, MTT, 72 h, mean ± SD, n = 3
  IC50: 16.9 ± 2.96 µM
[5]; MTT, 72 h, mean ± SD, n = 3
  IC50: 16.9 ± 2.96 µM
[6]; Homo sapiens, NCI-H1299, MTT, 72 h, mean ± SD, n = 3
  IC50: 1.07 ± 0.25 µM
[6]; [18]
  times more cytotoxic than cisplatin, NCI-H1299: 5.33 times
[7]; Homo sapiens, HCT-116, MTT, 72 h, mean ± SD, n = 3
  IC50: 5.31 ± 0.23 µM
[8]; Homo sapiens, MTT, mean ± SD, n = 3
  IC50: 5.56 ± 0.74 µM
[8]
  SI index: IC50 HCT116p53^−/−/IC50 HCT116: 1.05 ± 0.19 (ns) ^c (*) ^b
[9]
  time at which cell death starts to increase significantly, HCT116: 24 h
  confluence, HCT116: up to 16%
[10]
  time at which cell death starts to increase significantly, HCT116p53^−/−: 24 h
  confluence, HCT116p53^−/−: up to 16%

## O=C1NC(CSCSCC2NC(=O)c3ccc([N+](=O)[O-])cc3NC2=O)C(=O)Nc2cc([N+](=O)[O-])ccc21 (centres unmarked) [Compound 11, 3,3′-((methylenebis(sulfanediyl))bis(methylene))bis(8-nitro-3,4-dihydro-1H-benzo[e][1,4]diazepine-2,5-dione)]
[2]; Homo sapiens, A-431, 72 h
  IC50: 3.97 ± 0.87 µM
[3]; Homo sapiens, Skin fibroblast
  IC50: 23.1 ± 2.34 µM
[4]; Homo sapiens, A549, 72 h
  IC50: 16.3 ± 4.65 µM
[4]; selectivity index, normal lung MRC-5 vs A549
  SI index: IC50 MRC-5/IC50 A549: 1.86 ± 0.79 (ns) ^c (ns) ^b
[5]; Homo sapiens, MRC5, 72 h
  IC50: 28.7 ± 7.6 µM
[6]; Homo sapiens, NCI-H1299, 72 h
  IC50: 4.91 ± 1.45 µM
[7]; Homo sapiens, HCT-116, 72 h
  IC50: 4.9 ± 0.53 µM
[8]; Homo sapiens
  IC50: 6.07 ± 0.9 µM
[8]
  SI index: IC50 HCT116p53^−/−/IC50 HCT116: 1.26 ± 0.3 (ns) ^c (*) ^b
[9]
  time at which cell death starts to increase significantly, HCT116: 36 h
  confluence, HCT116: up to 16%
[10]
  time at which cell death starts to increase significantly, HCT116p53^−/−: 36 h
  confluence, HCT116p53^−/−: up to 16%

## N#CCC[C@H]1NC(=O)c2ccccc2-n2c1nc1ccccc1c2=O [auranthine]
[11]
  cytotoxic activity against MDA-MB-435: no cytotoxic activities
[12]
  cytotoxic activity against HepG2: no cytotoxic activities
[13]
  cytotoxic activity against HCT-116: no cytotoxic activities
[14]
  cytotoxic activity against Calu-3: no cytotoxic activities
[15]
  cytotoxic activity against normal IKHE: no cytotoxic activities

## CN1c2ccccc2C(=O)n2c3ccccc3c3ccnc1c32 [evodiagenine]
[16]
  cytotoxic activity against Sarcoma 180: exhibits cytotoxic activity
[17]
  cytotoxic activity against Heps (liver cancer): exhibits cytotoxic activity
